Experimental findings from patent US20250163043A1 (TRANSTHERA SCIENCES (NANJING), INC., priority 2021, published 2025) are described below.

Common to all, as to assay type: biochemical
One assay addresses CDK2/CycA2 (Homo sapiens, UniProt P24941). Kind of assay: ADP-Glo kinase assay on CDK enzymatic activity, CDK2/CycA2. Particulars: 10 concentrations from 10 μM, 4-fold, 60 min room temperature. The source says: (§1) Test samples: the compounds of the present invention, having structures shown above.
(§2) ADP-Glo Kinase Assay (ADP-Glo kinase kit), DMSO (dimethyl sulfoxide), CDK9/CycT1 (cyclin-dependent kinase 9/cyclin T1), CDK tide (cyclin-dependent kinase substrate peptide fragments), CDK1/CycE1 (cyclin-dependent kinase 1/cyclin E1), CDK2/CycA2 (cyclin-dependent kinase 2/cyclin A2), CDK3/CycE1 (cyclin-dependent kinase 3/cyclin E1), CDK4/CycD3 (cyclin-dependent kinase 4/cyclin D3), CDK5/p25NCK (cyclin-dependent kinase 5/p25), and AZD 4573.
(§3) A 384-well white plate, a 96-well plate, a microplate oscillator, a centrifuge, and a microplate reader.
(§4) The compounds were dissolved in DMSO and diluted 4-fold in the 96-well plate to obtain stock solutions with 10 concentration gradients, and added into a 384-well plate system to obtain a series of 10 concentration gradients of compound solutions with final concentrations of 10 μM starting and 4-fold gradient decreasing. 1 μM AZD4573 was used as compound positive control (PC) and 0.5% DMSO as solvent vehicle control (VC), ten duplicated wells each for PC and VC.
(§5) 1 μL of compound solution and 2 μL of 2× kinase solution were transferred to each well, and the plate was centrifuged at 1000 g for 30 s and left at room temperature for 10 min. A mixture of 2× substrate and ATP was prepared in 1× kinase buffer. The reaction was started after adding 2 μL of substrate and ATP into the plate. The plate was centrifuged at 1000 g for 30 s. The assay plate was closed and left at room temperature for 60 min. The reaction system was added with 4 μL of ADP Glo reagent, centrifuged at 1000 rpm for 1 min, and incubated at room temperature for 40 min. The reaction system was added with 8 μL of kinase assay reagent, centrifuged at 1000 rpm for 1 min and incubated at room temperature for 40 min. The […] was read on Biotek.
(§6) The inhibition rate was calculated according to the following formula: […]
(§7) Lumcmpd: compound fluorescence reading; Lumpositive: average value of the fluorescence reading of positive compound control; Lumvehicle: average value of the fluorescence reading of solvent vehicle control.
(§8) IC50 values were fitted using GraphPad 7.0 based on inhibition rates of compounds at different concentrations.

The target in a further assay is CDK9/CycT1 (Homo sapiens, UniProt P50750). Put plainly: ADP-Glo kinase assay on CDK enzymatic activity, CDK9/CycT1. Particulars: 10 concentrations from 10 μM, 4-fold, 60 min room temperature.
Excerpt: as §1, §2, §3, §4, §5, §6, §7, §8

Another assay has as its target CDK1/CycE1 (Homo sapiens, UniProt P06493). Put plainly: ADP-Glo kinase assay on CDK enzymatic activity, CDK1/CycE1. The note with it: ADP-Glo; 10 concentrations from 10 μM, 4-fold; 60 min room temperature; read-out: CDK1/CycE1/nM (IC50). How it is done:
as §1, §3, §4, §5, §6, §7, §8

Molecules are shown by their SMILES.

CDK9/CycT1, sequence (P50750 whole entry): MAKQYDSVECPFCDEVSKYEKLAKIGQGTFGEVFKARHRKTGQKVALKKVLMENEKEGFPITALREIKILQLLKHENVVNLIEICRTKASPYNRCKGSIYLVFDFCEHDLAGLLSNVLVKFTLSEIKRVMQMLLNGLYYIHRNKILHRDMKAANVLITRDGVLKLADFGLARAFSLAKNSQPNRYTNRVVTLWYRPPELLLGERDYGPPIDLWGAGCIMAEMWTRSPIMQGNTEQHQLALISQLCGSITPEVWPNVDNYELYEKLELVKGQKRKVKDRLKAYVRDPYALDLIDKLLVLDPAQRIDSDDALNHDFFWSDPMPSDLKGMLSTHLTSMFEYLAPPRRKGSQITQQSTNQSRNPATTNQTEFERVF
CDK9/CycT1, sequence (O60563 whole entry partner): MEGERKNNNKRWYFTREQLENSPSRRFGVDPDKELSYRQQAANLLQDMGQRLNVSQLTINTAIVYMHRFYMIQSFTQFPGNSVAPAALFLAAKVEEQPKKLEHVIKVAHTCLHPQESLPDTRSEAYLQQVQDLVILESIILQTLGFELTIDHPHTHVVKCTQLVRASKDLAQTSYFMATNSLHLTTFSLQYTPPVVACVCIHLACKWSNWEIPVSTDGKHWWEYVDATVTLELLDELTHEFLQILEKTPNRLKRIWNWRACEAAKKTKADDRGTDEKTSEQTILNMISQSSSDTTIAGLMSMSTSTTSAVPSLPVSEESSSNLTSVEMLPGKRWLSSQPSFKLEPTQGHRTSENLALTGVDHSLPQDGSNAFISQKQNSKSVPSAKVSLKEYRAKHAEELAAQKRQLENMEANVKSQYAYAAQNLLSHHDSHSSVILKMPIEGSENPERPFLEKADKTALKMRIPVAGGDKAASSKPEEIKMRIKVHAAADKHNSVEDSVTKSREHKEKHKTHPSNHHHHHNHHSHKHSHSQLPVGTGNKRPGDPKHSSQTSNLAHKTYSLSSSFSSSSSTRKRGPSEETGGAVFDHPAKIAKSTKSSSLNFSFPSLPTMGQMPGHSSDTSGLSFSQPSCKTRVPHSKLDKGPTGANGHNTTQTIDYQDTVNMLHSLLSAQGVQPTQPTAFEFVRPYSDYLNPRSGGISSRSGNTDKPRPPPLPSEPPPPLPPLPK
CDK1/CycE1, sequence (P06493 whole entry, species assumed): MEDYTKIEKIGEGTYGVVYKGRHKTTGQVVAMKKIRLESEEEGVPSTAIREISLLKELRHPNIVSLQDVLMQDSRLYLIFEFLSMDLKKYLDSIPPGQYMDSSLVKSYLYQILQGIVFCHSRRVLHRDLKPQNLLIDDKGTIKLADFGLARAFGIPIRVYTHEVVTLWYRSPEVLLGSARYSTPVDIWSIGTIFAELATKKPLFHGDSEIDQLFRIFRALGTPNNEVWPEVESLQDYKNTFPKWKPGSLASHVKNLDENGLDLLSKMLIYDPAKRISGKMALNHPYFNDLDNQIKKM
CDK1/CycE1, sequence (P24864 whole entry partner, species assumed): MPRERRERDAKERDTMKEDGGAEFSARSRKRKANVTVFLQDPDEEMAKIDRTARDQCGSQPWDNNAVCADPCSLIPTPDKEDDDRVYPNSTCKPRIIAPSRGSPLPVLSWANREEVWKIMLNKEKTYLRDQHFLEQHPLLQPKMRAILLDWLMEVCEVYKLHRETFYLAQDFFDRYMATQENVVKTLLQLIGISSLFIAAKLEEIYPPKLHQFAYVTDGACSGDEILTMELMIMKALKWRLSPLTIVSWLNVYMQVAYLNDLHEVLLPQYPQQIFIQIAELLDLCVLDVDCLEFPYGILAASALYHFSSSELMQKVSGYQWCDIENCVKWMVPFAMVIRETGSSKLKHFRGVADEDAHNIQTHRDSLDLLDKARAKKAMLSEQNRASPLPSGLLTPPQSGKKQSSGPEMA

Turning to `CC(C)Nc1nc(C#N)cc2cnc(N[C@H]3C[C@](C)(N)C3)cc12` [Compound 209, 7-((trans)-3-amino-3-methylcyclobutyl)amino-1-(isopropylamino)-2,6-naphthyridine-3-carbonitrile], the values for the IC50 at CDK2/CycA2, against CDK9/CycT1 and on CDK1/CycE1 were 306 nM, 2 nM and 170 nM, respectively.
Regarding `CC1(Nc2nc(C#N)cc3cnc(N[C@H]4C[C@](C)(N)C4)cc23)CC1` [Compound 211, 7-((trans)-3-amino-3-methylcyclobutyl)amino-1-((1-methylcyclopropyl)amino)-2,6-naphthyridine-3-carbonitrile], the IC50 at CDK2/CycA2 came out at 434 nM; at CDK9/CycT1, 3 nM; at CDK1/CycE1, 233 nM.
For `CC(C)Nc1nc(C#N)cc2cnc(N[C@H]3CCCCNC3)nc12` [Compound C6, (S)-2-(azepan-3-ylamino)-8-(isopropylamino)pyrido[3,4-d]pyrimidine-6-carbonitrile], the IC50 at CDK2/CycA2 came to 330 nM; on CDK9/CycT1, 4 nM; at CDK1/CycE1, 202 nM.
Take `CC(C)(C)Nc1nc(C#N)cc2cnc(N[C@H]3CCCNC3)nc12` [Compound C7, (S)-8-(tert-butylamino)-2-(piperidin-3-ylamino)pyrido[3,4-d]pyrimidine-6-carbonitrile]: the figures for the IC50 against CDK2/CycA2, at CDK9/CycT1 and at CDK1/CycE1 were 144 nM, 3 nM and 74 nM, respectively.
Regarding `CC(C)(C)Nc1nc(C(F)F)cc2cnc(N[C@H]3C[C@H](O)C3)nc12` [Compound C8, (1r,3r)-3-((8-(tert-butylamino)-6-(difluoromethyl)pyrido[3,4-d]pyrimidin-2-yl)amino)cyclobutan-1-ol], the IC50 against CDK2/CycA2 turned out to be 5 nM; at CDK9/CycT1, 2 nM; at CDK1/CycE1, 8 nM.
For the compound `CC(C)(C)Nc1nc(C#N)cc2cnc(N[C@H]3C[C@H](O)C3)nc12` [Compound C9, 8-(tert-butylamino)-2-(((1r,3r)-3-hydroxycyclobutyl)amino)pyrido[3,4-d]pyrimidine-6-carbonitrile], the IC50 was 8 nM against CDK2/CycA2, 1 nM against CDK9/CycT1 and 8 nM on CDK1/CycE1.
Consider `N#Cc1cc2cnc(N[C@H]3C[C@H](N)C3)nc2c(N[C@@H]2CCOC2)n1` [Compound C13, 2-(((1r,3R)-3-aminocyclobutyl)amino)-8-(((R)-tetrahydrofuran-3-yl)amino)pyrido[3,4-d]pyrimidine-6-carbonitrile], for which the IC50 came to 85 nM against CDK2/CycA2, 2 nM against CDK9/CycT1 and 187 nM on CDK1/CycE1.
For `CCCNc1nc(C#N)cc2cnc(N[C@H]3C[C@H](N)C3)nc12` [Compound C14, 2-(((1r,3r)-3-aminocyclobutyl)amino)-8-(propylamino)pyrido[3,4-d]pyrimidine-6-carbonitrile], the IC50 at CDK2/CycA2 was 32 nM; on CDK9/CycT1, 2 nM; at CDK1/CycE1, 127 nM.
Consider `N#Cc1cc2cnc(N[C@H]3C[C@H](N)C3)nc2c(N2CCCCC2)n1` [Compound C15, 2-(((1r,3r)-3-aminocyclobutyl)amino)-8-(piperidin-1-yl)pyrido[3,4-d]pyrimidine-6-carbonitrile], for which the IC50 stood at 253 nM on CDK2/CycA2, 2 nM against CDK9/CycT1 and 114 nM on CDK1/CycE1.
`CC(C)Nc1nc(C#N)cc2cnc(N[C@H]3C[C@H](CN)C3)nc12` [Compound C16, 2-(((1r,3r)-3-(aminomethyl)cyclobutyl)amino)-8-(isopropylamino)pyrido[3,4-d]pyrimidine-6-carbonitrile]: the IC50 on CDK2/CycA2 came to 22 nM; at CDK9/CycT1, 2 nM; on CDK1/CycE1 it was 81 nM.
Turning to `CC(C)(C)Nc1nc(C#N)cc2cnc(N[C@H]3C[C@H](N)C3)nc12` [Compound C18, 2-(((1r,3r)-3-aminocyclobutyl)amino)-8-(tert-butylamino)pyrido[3,4-d]pyrimidine-6-carbonitrile], the IC50 on CDK2/CycA2 came to 8 nM; against CDK9/CycT1, 2 nM; at CDK1/CycE1 it was 23 nM.
In the same order, the values of `CN[C@H]1C[C@H](Nc2ncc3cc(C#N)nc(NC(C)C)c3n2)C1` [Compound C20, 8-(isopropylamino)-2-(((1r,3r)-3-(methylamino)cyclobutyl)amino)pyrido[3,4-d]pyrimidine-6-carbonitrile] are 18 nM, 1 nM and 71 nM.
`CC(C)Nc1nc(C#N)cc2cnc(N[C@H]3C[C@H](N4CCN(C)CC4)C3)nc12` [Compound C22, 8-(isopropylamino)-2-(((1r,3r)-3-(4-methylpiperazin-1-yl)cyclobutyl)amino)pyrido[3,4-d]pyrimidine-6-carbonitrile]: the IC50 against CDK2/CycA2 turned out to be 24 nM; at CDK9/CycT1 it was 2 nM; on CDK1/CycE1 it was 218 nM.
`CC(C)Nc1nc(C#N)cc2cnc(N[C@H]3C[C@@H](N4CCN(C)CC4)C3)nc12` [Compound C23, 8-(isopropylamino)-2-(((1s,3s)-3-(4-methylpiperazin-1-yl)cyclobutyl)amino)pyrido[3,4-d]pyrimidine-6-carbonitrile]: the IC50 is 59 nM against CDK2/CycA2, 6 nM on CDK9/CycT1 and 288 nM on CDK1/CycE1.
Turning to `CC(C)Nc1nc(C#N)cc2cnc(N[C@H]3C[C@H](N(C)C)C3)nc12` [Compound C24, 2-(((1r,3r)-3-(dimethylamino)cyclobutyl)amino)-8-(isopropylamino)pyrido[3,4-d]pyrimidine-6-carbonitrile], the IC50 at CDK2/CycA2 turned out to be 115 nM; on CDK9/CycT1 it was 2 nM; at CDK1/CycE1, 142 nM.
The like results for `CC(C)CNc1nc(C#N)cc2cnc(N[C@H]3C[C@H](N)C3)nc12` [Compound C25, 2-(((1r,3r)-3-aminocyclobutyl)amino)-8-(isobutylamino)pyrido[3,4-d]pyrimidine-6-carbonitrile] were, in that order, 34 nM, 1 nM and 86 nM.
On to `CC(C)Nc1nc(C#N)cc2cnc(N[C@H]3C[C@](C)(N)C3)nc12` [Compound C26, 2-(((1r,3r)-3-amino-3-methylcyclobutyl)amino)-8-(isopropylamino)pyrido[3,4-d]pyrimidine-6-carbonitrile], for which the IC50 on CDK2/CycA2 was 93 nM; at CDK9/CycT1, 1 nM; on CDK1/CycE1, 34 nM.
In the case of `CCNc1nc(C#N)cc2cnc(N[C@H]3C[C@H](N)C3)nc12` [Compound C28, 2-(((1r,3r)-3-aminocyclobutyl)amino)-8-(ethylamino)pyrido[3,4-d]pyrimidine-6-carbonitrile], the IC50 against CDK2/CycA2 came out at 34 nM; against CDK9/CycT1, 1 nM; on CDK1/CycE1 it was 186 nM.
On to `N#Cc1cc2cnc(N[C@H]3C[C@H](N)C3)nc2c(NC2CCOCC2)n1` [Compound C30, 2-(((1r,3r)-3-aminocyclobutyl)amino)-8-((tetrahydro-2H-pyran-4-yl)amino)pyrido[3,4-d]pyrimidine-6-carbonitrile], for which the IC50 against CDK2/CycA2 amounted to 83 nM; on CDK9/CycT1, 2 nM; at CDK1/CycE1, 99 nM.
With `CC(C)Nc1nc(C#N)cc2cnc(N[C@H]3C[C@H](CO)C3)nc12` [Compound C31, 2-(((1r,3r)-3-(hydroxymethyl)cyclobutyl)amino)-8-(isopropylamino)pyrido[3,4-d]pyrimidine-6-carbonitrile], the IC50 against CDK2/CycA2 came to 5 nM; at CDK9/CycT1, 2 nM; at CDK1/CycE1, 21 nM.
Regarding `CC1(Nc2nc(C#N)cc3cnc(N[C@H]4C[C@H](N)C4)nc23)CC1` [Compound C35, 2-(((1r,3r)-3-aminocyclobutyl)amino)-8-((1-methylcyclopropyl)amino)pyrido[3,4-d]pyrimidine-6-carbonitrile], the IC50 on CDK2/CycA2 turned out to be 19 nM; against CDK9/CycT1, 1 nM; on CDK1/CycE1 it was 112 nM.
Turning to `N#Cc1cc2cnc(N[C@H]3C[C@H](N)C3)nc2c(NC23CC(C2)C3)n1` [Compound C36, 2-(((1r,3r)-3-aminocyclobutyl)amino)-8-(bicyclo[1.1.1]pentan-1-ylamino)pyrido[3,4-d]pyrimidine-6-carbonitrile], the IC50 against CDK2/CycA2 was 32 nM; on CDK9/CycT1, 2 nM; at CDK1/CycE1, 25 nM.
Take `COC[C@@H](C)Nc1nc(C#N)cc2cnc(N[C@H]3C[C@H](N)C3)nc12` [Compound C41, 2-(((1r,3R)-3-aminocyclobutyl)amino)-8-(((R)-1-methoxypropan-2-yl)amino)pyrido[3,4-d]pyrimidine-6-carbonitrile]: the values for the IC50 on CDK2/CycA2, against CDK9/CycT1 and at CDK1/CycE1 were 82 nM, 1 nM and 540 nM, respectively.
